Laboratory results as given in ChEMBL document CHEMBL3872281, “A one-pot laccase-catalysed synthesis of coumestan derivatives and their anticancer activity” (Bioorg Med Chem, 2017).

Key:
[1] = Cytotoxicity against human UACC62 cells assessed as cell growth inhibition after 48 hrs by SRB assay; type: functional; conditions: UACC-62, 48 h
[2] = Cytotoxicity against human TK10 cells assessed as cell growth inhibition after 48 hrs by SRB assay; type: functional; conditions: TK-10, 48 h; for CC50: read-out: LC50 (the source's name)
[3] = Cytotoxicity against human MCF7 cells assessed as cell growth inhibition after 48 hrs by SRB assay; type: functional; conditions: MCF7, 48 h; for CC50: read-out: LC50 (the source's name)
[4] = biological target: T1, Arachidonate 5-lipoxygenase (Sus scrofa) (UniProt K7GQZ4); assay: Potency index, ratio of coumestrol IC50 to compound IC50 for 5-lipoxygenase in pig leukocytes; type: cell-based
T1 sequence (whole entry): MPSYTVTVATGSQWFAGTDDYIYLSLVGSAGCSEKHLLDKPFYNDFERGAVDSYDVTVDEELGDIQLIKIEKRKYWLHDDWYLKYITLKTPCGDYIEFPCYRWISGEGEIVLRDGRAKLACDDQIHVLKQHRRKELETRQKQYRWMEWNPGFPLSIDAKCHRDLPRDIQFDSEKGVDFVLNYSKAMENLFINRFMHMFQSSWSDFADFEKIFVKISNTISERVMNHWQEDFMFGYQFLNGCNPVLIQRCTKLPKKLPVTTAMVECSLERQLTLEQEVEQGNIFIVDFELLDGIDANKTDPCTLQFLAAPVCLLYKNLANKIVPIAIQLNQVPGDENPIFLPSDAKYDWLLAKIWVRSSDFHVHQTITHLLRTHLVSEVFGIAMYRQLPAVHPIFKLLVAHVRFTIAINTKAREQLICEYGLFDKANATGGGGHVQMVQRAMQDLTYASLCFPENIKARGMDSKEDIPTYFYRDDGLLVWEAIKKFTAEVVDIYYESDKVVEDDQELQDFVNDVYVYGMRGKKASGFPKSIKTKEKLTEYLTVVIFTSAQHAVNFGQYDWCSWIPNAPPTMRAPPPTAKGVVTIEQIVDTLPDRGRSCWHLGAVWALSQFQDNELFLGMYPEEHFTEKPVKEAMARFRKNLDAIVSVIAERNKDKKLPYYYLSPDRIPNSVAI

[5] = biological target: T2, Arachidonate 5-lipoxygenase (Sus scrofa, UniProt K7GQZ4); assay: Inhibition of 5-lipoxygenase in pig leukocytes using arachidonic acid as substrate; type: cell-based
T2 sequence (K7GQZ4 whole entry): T1 sequence (whole entry)

UACC-62 = assay: Potency index, ratio of etoposide TGI to compound TGI for human UACC62 cells; type: functional

Ratio IC50 [4] | IC50 [5] [µM] | Structure (SMILES) | GI50 [1] [µM] | LC50 (concentration giving 50% net cell kill) [1] [µM] | TGI [1] [µM] | GI50 [2] [µM] | TGI [2] [µM] | CC50 [2] [µM] | GI50 [3] [µM] | TGI [3] [µM] | CC50 [3] [µM] | Ratio (UACC-62)
– | – | Cc1c(O)c(O)cc2c1oc1c3cc(Cl)ccc3oc(=O)c21 | 39.7 | > 100 | 73.6 | 58.1 | > 100 | > 100 | 63.1 | > 100 | > 100 | –
– | – | O=c1oc2ccccc2c2oc3cc(O)c(O)cc3c12 | 33.3 | 90.6 | 61.9 | 28.7 | 88.4 | > 100 | 39.4 | 77.3 | > 100 | –
– | – | Cc1c(O)c(O)cc2c1oc1c3ccccc3oc(=O)c21 | 55.6 | > 100 | > 100 | > 100 | > 100 | > 100 | 54.9 | > 100 | > 100 | –
– | – | Cc1cc2oc(=O)c3c4cc(O)c(O)c(C)c4oc3c2cc1C | 67.6 | > 100 | > 100 | > 100 | > 100 | > 100 | 87.3 | > 100 | > 100 | –
– | – | O=c1oc2ccc(Cl)cc2c2oc3c(F)c(O)c(O)cc3c12 | 83.7 | > 100 | > 100 | > 100 | > 100 | > 100 | 70.3 | > 100 | > 100 | –
– | – | Cc1cc2oc(=O)c3c4cc(O)c(O)cc4oc3c2cc1C | 38.3 | > 100 | 80.1 | 53.3 | > 100 | > 100 | 46 | 86.3 | > 100 | –
– | – | COc1c(O)c(O)cc2c1oc1c3ccccc3oc(=O)c21 | 67.6 | > 100 | > 100 | > 100 | > 100 | > 100 | 87.3 | > 100 | > 100 | –
– | – | Cc1cc2oc(=O)cc(O)c2cc1C | 80.5 | > 100 | > 100 | > 100 | > 100 | > 100 | 82.3 | > 100 | > 100 | –
– | – | Cc1cccc(O)c1O | 15.2 | – | 46.2 | 38.1 | 75.8 | > 100 | 27.3 | 64.3 | > 100 | –
– | – | Cc1ccc2oc(=O)cc(O)c2c1 | 84.7 | – | > 100 | > 100 | > 100 | > 100 | 84.4 | > 100 | > 100 | –
– | – | O=c1oc2ccccc2c2oc3c(F)c(O)c(O)cc3c12 | 67.6 | > 100 | > 100 | > 100 | > 100 | > 100 | 53.1 | > 100 | > 100 | –
– | – | COc1c(O)c(O)cc2c1oc1c3cc(C)c(C)cc3oc(=O)c21 | 18.1 | 75.3 | 46.7 | 26.8 | 66.4 | > 100 | 29.5 | 95.4 | > 100 | –
– | – | Cc1ccc2oc(=O)c3c4cc(O)c(O)cc4oc3c2c1 | 11.2 | 90.7 | 50.9 | 52 | > 100 | > 100 | 54.7 | > 100 | > 100 | –
– | – | O=c1oc2ccc(Cl)cc2c2oc3cc(O)c(O)cc3c12 | 36.3 | > 100 | 68.6 | 53.4 | > 100 | > 100 | 47.5 | 89.8 | > 100 | –
– | – | COc1cccc(O)c1O [3-METHOXYCATECHOL] | 23.6 | – | 50.3 | 51.6 | 97 | > 100 | 27.6 | 60.7 | 93.8 | –
– | – | O=c1cc(O)c2cc(Cl)ccc2o1 | 88.7 | > 100 | > 100 | > 100 | > 100 | > 100 | 83.3 | > 100 | > 100 | –
– | – | Oc1cccc(F)c1O | 35.2 | – | 78.4 | 84.7 | > 100 | > 100 | 57.6 | > 100 | > 100 | –
– | – | COc1c(O)c(O)cc2c1oc1c3cc(C)ccc3oc(=O)c21 | 49.9 | > 100 | > 100 | 88.6 | > 100 | > 100 | 65.8 | > 100 | > 100 | –
– | – | Oc1ccccc1O [CATECHOL] | 45 | – | > 100 | 68 | > 100 | > 100 | 52.4 | > 100 | > 100 | –
40 | 2.5 | COc1cc(O)c2c(c1)oc(=O)c1c3cc(O)c(O)cc3oc21 [WEDELOLACTONE] | – | – | – | – | – | – | – | – | – | –
– | – | Cc1ccc2oc(=O)c3c4cc(O)c(O)c(C)c4oc3c2c1 | 5.35 | 89.9 | 9.82 | 48.8 | > 100 | > 100 | 7.96 | 78.2 | > 100 | 5
– | – | Cc1cc2oc(=O)c3c4cc(O)c(O)c(F)c4oc3c2cc1C | 91.8 | > 100 | > 100 | > 100 | > 100 | > 100 | 77.7 | > 100 | > 100 | –
– | – | COc1cc([C@@H]2c3cc4c(cc3[C@@H](O[C@@H]3O[C@@H]5CO[C@@H](C)O[C@H]5[C@H](O)[C@H]3O)[C@H]3COC(=O)[C@H]23)OCO4)cc(OC)c1O [ETOPOSIDE] | 0.89 | – | – | – | – | > 100 | 0.56 | > 100 | > 100 | –
– | – | O=c1cc(O)c2ccccc2o1 [4-HYDROXYCOUMARINS] | 83.6 | – | > 100 | > 100 | > 100 | > 100 | 95.3 | > 100 | > 100 | –
